Reference: patent US10865176B2, “Small molecule modulators of microRNA-34a” (The Chinese University of Hong Kong, priority 2012, dated 2020)

Columns and labels:
[1] = test system: miR-7a, miR-21, miR-23a, miR-29c, miR-34c, miR-219, miR-145, miR-192, miR-215; test: qRT-PCR of a panel of other miRNAs in Huh7 cells; format: cell-based, human; conditions: 10 μM, 48 h
Procedure: (§1) Total RNA from cell cultures and HCC xenograft tumors were extracted using Trizol (Invitrogen) according to manufacturer's protocols. Total RNAs were dissolved into nuclease-free ddH2O. For protein extraction, cells and HCC xenograft tumors were lysed in 1×RIPA buffer with 1 mM PMSF and 1× complete protease inhibitor cocktail (Roche, Indianapolis, Ind.). Both RNA and protein were stored at −80° C.
(§2) Total RNA was reversely transcribed into cDNAs using High Capacity cDNA Reverse Transcription Kit (Applied Biosystems, Foster city, CA, USA) and nude RT kit (Invitrogen) individually. qRT-PCR was performed using SYBR Green PCR master mix (TaKaRa, Dalian, China). GAPDH was used as an endogenous control. For measuring miR-34a expression level, qPCR was performed by using SYBR Green PCR master mixture (Invitrogen) and U6 was used as the internal control. All samples were normalized to internal controls and fold changes were calculated by relative quantification (2^−ΔΔct).

Cyclin D1 and Bcl-2 = test: Expression of miR-34a targets Cyclin D1 and Bcl-2 (qRT-PCR, western blotting) in HCC cells; format: cell-based, human; conditions: 10 μM, 48 h (RNA) or 72 h (protein)
Procedure: as §1, §2
Protein quantification was performed using BCA protein assay kit (Thermo Fisher Scientific, Rockford, Ill., USA). 25-50 μg protein was separated by SDS-PAGE (sodium dodecyl sulfate-polyacrylamide gel electrophoresis) and transferred to PVDF membranes (Bio-Rad). […] Protein expression was detected by autoradiography using Amersham ECL Plus™ Western Blotting Detection Reagents (GE Healthcare, Uppsala, Sweden).

[2] = test system: CDK6, FOXP, Notch1 and Sirtuin; test: Expression of other miR-34a targets by qRT-PCR in HCC cells; format: cell-based, human; conditions: 10 μM, 48 h
Procedure: as §1, §2

Bel-7404 cells = test: MTT cell viability assay, Bel-7404; format: cell-based, human
Procedure: (§3) Cell viability was measured by 3-(4,5-Dimethylthiazol-2-yl)-2,5-diphenyltetrazolium bromide (MTT) assay. 1×10^3 Cells were seeded in triplicate on a 96 well plate and were allowed to grow for indicated time points. At each time point a set of cells were incubated with 0.5 mg/ml MTT diluted in 1×PBS. After 2 to 4 h incubation, the MTT solution was removed. The insoluble MTT was dissolved in DMSO. Absorbance at 570 nm was measured by an ELISA plate reader.

PLC cells = test: MTT cell viability assay, PLC/PRF/5; format: cell-based, human
Procedure: as §3

HepG2 xenografted tumors = test: CD31 immunohistochemical staining of HepG2 xenografted tumors (microvessel density); format: in vivo, nude mice; conditions: Rubone treated tumors; control group 67.50; p=0.0098
Procedure: Immunohistochemical staining was performed on HepG2 xenografted tumor tissues with CD31 specific antibody (Cat #: Y059114, Abcam, Cambridge, Mass.). Subcutaneous tumor tissue sections were incubated with anti-CD31 overnight at 4° C. Mean microvessel density was calculated by averaging vessel counts from three random fields per slide.

miR-34a promoter = miR-34a promoter luciferase activity assay in HCC cells; format: cell-based, human; conditions: 10 μM
Procedure: The pMIR-REPORT™ luciferase plasmid (1 μg; Ambion) was sequentially double digested with Sac I and Hind III (10 units each, 50 μL reaction; NEB) and was gel purified. Double stranded insert DNA encoding the miR-34a binding site was synthesized through standard oligonucleotide synthesis methods. The sequences used were Forward: 5′z […]-3′ (SEQ ID NO:1) and Reverse: 5′: […]-3′ (SEQ ID NO:2). The insert was hybridized (heated to 95° C., and cooled to 4° C. over 30 min, then held at 4° C. for 60 min) and ligated with T4 ligase (200 units, 10 μL reaction, 1:10 vector/insert ratio; NEB) into the digested pMIR-REPORT™ luciferase vector. Positive colonies were selected by PCR colony screens, and the construction of the pMIR-REPORT™-miR-34a vector was confirmed by double enzyme digestion with NheI, MluI and Nhe I, Hind III (NEB). The luciferase reporter vector containing the miR-34a promoter was kindly provided by Prof. Mendell J T from Johns Hopkins University (21).
MiR-34a reporter, the luciferase reporter vector containing miR-34a promoter and the control vectors were transfected into HCC cells 12 h before compound treatment. The Renilla luciferase vector pRL-SV40 was co-transfected as an internal control. HCC cells were then treated with compound for 48-72 h. The luciferase activity was measured by Dual Luciferase Reporter Assay (Promega) with a Wallac VICTOR^3V luminometer. The ratio of firefly luciferase to Renilla expression was calculated for each of the triplicates.

p53 = p53 expression by RT-PCR in HCC cells; format: cell-based, human; conditions: HepG2, Huh7 and Bel-7404 cells, 10 μM (FIG. 9A)
Procedure: as §2

[3] = HepG2 xenograft model, survival, body weight and side effects; conditions: for Body weight (g) initial / Body weight (g) end: mean (95% CI); for Body weight (g) end: end of 24 d treatment
Procedure: 5×10^6 HepG2 cells were suspended in 100 μl serum-free medium and subcutaneously (s.c.) inoculated into the dorsal flanks of nude mice. When tumors reached 5-10 mm in diameter, mice were randomly divided into 4 groups (n=5). […] Vehicle alone and Sorafenib were used as the negative and positive control respectively. Tumor volumes and body weight were measured once every two days. Tumor volume was calculated as [(Length×Width×Height)±2]. Treatment was continued for 24 d. Finally, all mice were sacrificed and tumors were excised. Tumor weight was recorded.

Structure (SMILES): COc1cc(O)c(C(=O)/C=C/c2cc(OC)c(OC)cc2OC)c(OC)c1 [Rubone, 2′-Hydroxy-2,4,4′,5,6′-pentamethoxychalcone]
- expression of other p53 regulated miRNAs (miR-34c, miR-145, miR-192, miR-215) [1]: did not change
- expressions of miR-7a, miR-21, miR-23a, miR-29c, miR-34c and miR-219 [1]: not affected
- mRNA and protein levels of Cyclin D1 and Bcl-2 (Cyclin D1 and Bcl-2; HepG2 cells): significantly reduced
- mRNA and protein levels of Cyclin D1 and Bcl-2 (Cyclin D1 and Bcl-2; Huh7 cells): significantly reduced
- expression levels of CDK6, FOXP, Notch1 and Sirtuin ([2]; HepG2 cells): decreased
- expression levels of CDK6, FOXP, Notch1 and Sirtuin ([2]; Huh7 cells): decreased
- growth inhibitory effect of Rubone after p53 knockdown (MTT) (Bel-7404 cells; Bel-7404, 2 μM siRNAs targeting p53, 10 μM Rubone): significantly reversed by knocking down p53
- cell growth (MTT) (Bel-7404 cells; Bel-7404, 10 μM): significantly inhibited the growth
- effect of miR-34a inhibitors on growth inhibition by Rubone (MTT) (Bel-7404 cells; Bel-7404, 10 μM Rubone with 2 μM miR-34a inhibitors, 72 h): reversed the growth inhibitory effect
- effect of miR-34a mimics on chemosensitivity to Rubone (MTT) (Bel-7404 cells; Bel-7404, 10 μM Rubone with 2 μM miR-34a mimics, 72 h): enhanced the chemosensitivity
- cell growth (MTT) (PLC cells; 10 μM): significantly inhibited the growth
- effect of miR-34a inhibitors on growth inhibition by Rubone (MTT) (PLC cells; 10 μM Rubone with 2 μM miR-34a inhibitors, 72 h): reversed the growth inhibitory effect
- effect of miR-34a mimics on chemosensitivity to Rubone (MTT) (PLC cells; 10 μM Rubone with 2 μM miR-34a mimics, 72 h): enhanced the chemosensitivity
- tube score mean (microvessels, CD31 staining) (HepG2 xenografted tumors): 12.50
- miR-34a promoter activity (miR-34a promoter; Bel-7404 (p53 mutant)): increased
- miR-34a promoter activity (miR-34a promoter; Hep3B (p53 deletion)): no change
- miR-34a promoter activity (miR-34a promoter; HepG2 (p53 wild type)): increased
- p53 expression (p53): not affected
- Body weight (g) initial ([3]; 20 mg/kg group): 19.60(95% CI = 18.49 − 20.71)/ g
- Body weight (g) end ([3]; 20 mg/kg): 23.60(95% CI = 21.93 − 25.27) g
- Mice survival (n) initial/end ([3]; 20 mg/kg, gavage once every two days, 24 d): 5/5
- Body weight (g) initial ([3]; 50 mg/kg group): 20.00(95% CI = 20.00 − 20.00)/ g
- Body weight (g) end ([3]; 50 mg/kg): 23.60(95% CI = 21.03 − 26.17) g
- Mice survival (n) initial/end ([3]; 50 mg/kg, gavage once every two days, 24 d): 5/5
- side effect at the end of experiment ([3]; tumor bearing nude mice, gavage once every two days, 24 d): No obvious side effect
